What all share (assay): DTP human tumour cell line panel, 48 h
For experiment [1], the system named is 786-0 renal.
Experiment [2] relates to HCT-15 colon.
Experiment [3] relates to HOP-92 NSCLC.
Experiment [4] deals with HT29 colon.
Experiment [5] concerns MOLT-4 leukemia.
The subject of experiment [6] is SK-MEL-2 melanoma.
Experiment [7] relates to SW-620 colon.
Experiment [8] relates to IGROV1 ovarian.
Experiment [9] relates to DLD-1 colon.
For experiment [10], the system named is DMS 114 small cell lung.
For experiment [11], the system named is M19-MEL melanoma.
Experiment [12] deals with SNB-78 CNS.
Experiment [13] relates to XF 498 CNS.

In PubChem BioAssay (NCI) one finds TGI and GI50 data, which are given here for 5 compounds.

Molecules are shown by their SMILES.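 All cell lines were grown in 96-well plates and treated with compound for 48 hours. At the GI50, growth is halved. TGI is the concentration that stops growth completely.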

Usually TGI stands for the concentration giving total growth inhibition. A higher TGI goes with less potent growth arrest. As a reminder, the GI50 is the concentration at which growth is held to half of that of the control.

In the case of `OC1CCN2Cc3ccccc3N=C12` (stereo unspecified), the TGI in [1], in experiment [2], in experiment [3], in experiment [4], in experiment [5] and in [6] was more than 100 µM each time. Also, in experiment [7], the total growth inhibition concentration (TGI) was more than 100 µM.
In the case of `CC1OC1C(=O)P(=O)(O)O` (stereo unspecified), the TGI in experiment [2], in experiment [3], in experiment [8], in experiment [5], in experiment [6] and in experiment [7] was more than 100 µM each time.
Regarding `COc1ccccc1C1C(C#N)=C(N)SC(N)=C1C#N`, the GI50 in experiment [2] is 81.3 µM; in experiment [3] it was 47.1 µM; in experiment [4] it was 37.4 µM; in [8], 11.1 µM; in experiment [5], 45 µM; in experiment [6] it was more than 100 µM. Further, the GI50 in [7] is more than 100 µM. Besides, the TGI in experiment [2] is more than 100 µM; in [3], more than 100 µM; in experiment [4], more than 100 µM; in [8] it was 70 µM; in [5], more than 100 µM; in experiment [6], more than 100 µM. The compound further displayed a TGI in experiment [7] of more than 100 µM.
Turning to `NCC(=O)N[C@H]1c2ccsc2/C(=N/O)[C@H]1O`, the TGI in experiment [2], in experiment [3], in [4], in [8], in experiment [5] and in [6] was more than 100 µM each time. In addition, the TGI in experiment [7] was more than 100 µM.
Turning to `Cc1ccccc1NC(=O)C(=O)C(C1OC(=O)c2ccccc21)[N+](=O)[O-]` (stereo unspecified), the TGI in experiment [9], in experiment [10], in [2], in [3], in [4] and in experiment [8] was more than 100 µM throughout. Also, the TGI in experiment [11], in [5], in [6], in experiment [12], in [7] and in [13] was more than 100 µM in each case.
